Assays:
[1] = Assay to test DPPH radical-scavenging activity (Example 65); assay type: physicochemical; settings: combinations of amino acids and Reb-A, 100 °C; less pronounced than glucose or xylose
Protocol: 1 mg 1,1-Diphenyl-2-picrylhydrazyl radical (DPPH)/ml ethanol, dilution to assay concentration were prepared in ethanol (40 μg/mL); Calibration samples were prepared with Ascorbic acid in a concentration of 0-10 μg/mL, as a negative control sample, water was used.
Samples in aqueous solution were used as such or diluted with water.
A 0.1 ml sample (or calibration standard) was mixed with 3.9 ml solution of DPPH (100 μMolar) and reacted while protected from light at room temperature for 30 min. Absorbance was determined at 517 nm against ethanol.
10 mM of amino acid and/or 10 mM sugar were dissolved in 10 ml 0.1 mM KH2PO4-buffer, pH=7.8.
The samples were kept at 100° C. in sealed glass vials (Pyrex 15 ml with screw caps) for 0 (before reaction), 2.5 or 5.0 hours. Thereafter the samples were transferred to an ice water bath and cooled down to room temperature. These samples were diluted 1:10 and used for the test assay for anti-oxidant potential.

[2] = Degree of kokumi of gellan gum solution (Example 188); parameters: species or system human
Protocol: Gellan gum was added to pure water to prepare several gellan gum solutions with a concentration gradient as standard solutions for judging the degree of kokumi of the gellan gum solutions.
A gellan gum solution was prepared at a concentration of 400 ppm. Different amounts of MRP, S-MRP or TS-MRP were added to the solution such that the concentration of MRP, S-MRP or TS-MRP in the solution was 50 ppm, 75 ppm, 100 ppm, 125 ppm or 150 ppm.
(§1) Method: For evaluation of the degree of kokumi, the sample solutions (described above) were tested by a panel of four people. The panel was asked to taste the sample solutions and compare them to standard solutions (described above) to judge to which standard solution the degree of kokumi of sample solution is similar 1 trained taster tasted independently the samples first. The tester was allowed to re-taste, and then made judgment. Afterwards, another 3 tasters tasted and the judgments were discussed openly to find a suitable description. In the case that more than 1 taster disagreed with the result, the tasting was repeated.

[3] = Degree of kokumi of carrageenan solution (Example 187); parameters: species or system human
Protocol: Carrageenan was added to pure water to prepare several carrageenan solutions with a concentration gradient as standard solutions for judging the degree of kokumi of the carrageenan solutions.
A carrageenan solution was prepared at a concentration of 400 ppm. Different amounts of MRP, S-MRP or TS-MRP were added to the solution such that the concentration of MRP, S-MRP or TS-MRP in the solution was 50 ppm, 75 ppm, 100 ppm, 125 ppm or 150 ppm.
as §1, with “judge” for “judge to”, “similar to.” for “similar”, “description in” for “description. In”

[4] = Degree of kokumi of Tamarind gum solution (Example 189); parameters: species or system human
Protocol: Tamarind gum was added to pure water to prepare several Tamarind gum solutions with a concentration gradient as standard solutions for judging the degree of kokumi of the Tamarind gum solutions.
A Tamarind gum solution was prepared at a concentration of 400 ppm. Different amounts of MRP, S-MRP or TS-MRP were added to the solution such that the concentration of MRP, S-MRP or TS-MRP in the solution was 50 ppm, 75 ppm, 100 ppm, 125 ppm or 150 ppm.
as §1

Compound: C=C1C[C@@]23CC[C@H]4[C@@](C)(CCC[C@@]4(C)C(=O)O[C@@H]4O[C@H](CO)[C@@H](O)[C@H](O)[C@H]4O)[C@@H]2CC[C@]1(O[C@@H]1O[C@H](CO)[C@@H](O)[C@H](O[C@@H]2O[C@H](CO)[C@@H](O)[C@H](O)[C@H]2O)[C@H]1O[C@@H]1O[C@H](CO)[C@@H](O)[C@H](O)[C@H]1O)C3 [Reb-A, Rebaudioside A]
- anti-oxidant properties [1]: substantial anti-oxidant properties

Compound: gellan gum
- concentration above which taste like starch paste is clearly felt [2]: exceeds 1400 ppm

Compound: carrageenan
- concentration above which taste like starch paste is clearly felt [3]: exceeds 1000 ppm

Compound: Tamarind gum
- concentration above which taste like starch paste is clearly felt [4]: exceeds 1400 ppm
